A value given as a limit tells only on which side of the number the result lay.

For one test, the system named is SW480 colon cancer cells. Kind of test: Cell viability assay (CellTiter-Blue) in SW480 colon cancer cells. The test is classed as cell-based. To be noted: Homo sapiens, 96 h; for inhibition at 10 µM: four days, CellTiter-Blue, read-out: percent inhibition at 10 μM (given for EC50 of >10 μM); for EC50: four days incubation, CellTiter-Blue cell viability. In outline:
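Four-day exposure of SW480 cells (~2×10^3/well) to compound from 10 μM down to 0.004 μM in 1:3 steps, in duplicate. Resorufin fluorescence from CellTiter-Blue after ~3 h served as the viability read-out. EC50 values came from nonlinear curve fits, with % inhibition at 10 μM given where EC50 >10 μM.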

Test [1] has as its system LL29 cells (primary human fibroblasts derived from IPF patients) treated with TGF-β1, α-smooth muscle actin. Kind of test: Inhibition of the fibrotic process: αSMA staining in TGF-β1 treated primary human fibroblasts from IPF patients (LL29 cells). In kind it is cell-based. To be noted: Fibroblast, 96 h; for EC50: LL29 cells treated with TGF-β1 (20 ng/mL), 4 days; for inhibition at 10 µM: LL29 cells treated with TGF-β1, 4 days, read-out: percent inhibition in brackets (given for EC50 >10 μM).

`Cc1cn(-c2cncc3[nH]c(-c4n[nH]c5ccc(C6=CCNCC6)nc45)nc23)cn1` [Compound 590, 3-(7-(4-Methyl-1H-imidazol-1-yl)-3H-imidazo[4,5-c]pyridin-2-yl)-5-(1,2,3,6-tetrahydropyridin-4-yl)-1H-pyrazolo[4,3-b]pyridine]: in the test with SW480 colon cancer cells, the inhibition (commonly the share of the control response that was lost under treatment) at 10 µM was 10% and the EC50 (in general, the concentration giving half of the maximal effect) is above 10 µM. Also, in test [1], the 50% effective concentration (EC50) is above 10000 nM and the inhibition at 10 µM stood at 36.8%.

As for `Cc1cn(-c2cncc3[nH]c(-c4n[nH]c5ccc(-c6cncc(OCCN(C)C)c6)nc45)nc23)cn1` [Compound 599, N,N-Dimethyl-2-((5-(3-(7-(4-methyl-1H-imidazol-1-yl)-3H-imidazo[4,5-c]pyridin-2-yl)-1H-pyrazolo[4,3-b]pyridin-5-yl)pyridin-3-yl)oxy)ethan-1-amine], in the test with SW480 colon cancer cells, the inhibition at 10 µM was 7.1% and the EC50 was above 10 µM. Moreover, in test [1], the EC50 is above 10000 nM and the inhibition at 10 µM was found to be 15.4%.

As for `CN1CCN(c2cncc3[nH]c(-c4n[nH]c5ccc(-c6cnccn6)nc45)nc23)CC1` [Compound 620, 3-(7-(4-Methylpiperazin-1-yl)-3H-imidazo[4,5-c]pyridin-2-yl)-5-(pyrazin-2-yl)-1H-pyrazolo[4,3-b]pyridine], the inhibition at 10 µM came out at 48.8% with SW480 colon cancer cells and 34.1% in test [1]. Further, the EC50 in the test with SW480 colon cancer cells is above 10 µM; in test [1], above 10000 nM.

As for `O=C(CC1CCNCC1)Nc1cncc(-c2ccc3[nH]nc(-c4nc5c(-c6ccsc6)cncc5[nH]4)c3n2)c1` [Compound 629, 2-(Piperidin-4-yl)-N-(5-(3-(7-(thiophen-3-yl)-3H-imidazo[4,5-c]pyridin-2-yl)-1H-pyrazolo[4,3-b]pyridin-5-yl)pyridin-3-yl)acetamide], in the test on SW480 colon cancer cells, the inhibition at 10 µM stood at 2.8%. The EC50 in the test with SW480 colon cancer cells was above 10 µM; in test [1], 2540 nM.

As to `Cc1ncc(-c2ccc3[nH]nc(-c4nc5c(-c6ccoc6)cncc5[nH]4)c3n2)n1C` [Compound 641, 5-(1,2-Dimethyl-1H-imidazol-5-yl)-3-(7-(furan-3-yl)-3H-imidazo[4,5-c]pyridin-2-yl)-1H-pyrazolo[4,3-b]pyridine], the EC50 in the test with SW480 colon cancer cells turned out to be 2.88 µM. Besides, in test [1], the EC50 was above 10000 nM and the inhibition at 10 µM was found to be 0%.

Turning to `CC(C)CC(=O)Nc1cncc(-c2ccc3[nH]nc(-c4nc5c(-c6ccc(Cl)s6)cncc5[nH]4)c3n2)c1` [Compound 992, N-(5-(3-(7-(5-Chlorothiophen-2-yl)-3H-imidazo[4,5-c]pyridin-2-yl)-1H-pyrazolo[4,3-b]pyridin-5-yl)pyridin-3-yl)-3-methylbutanamide], in the test on SW480 colon cancer cells, the inhibition at 10 µM amounted to 25.1% and the EC50 was above 10 µM. The EC50 in test [1] was 2290 nM.

`CC(C)(C)C(=O)Nc1cncc(-c2ccc3[nH]nc(-c4nc5c(-c6ccc(Cl)s6)cncc5[nH]4)c3n2)c1` [Compound 998, N-(5-(3-(7-(5-Chlorothiophen-2-yl)-3H-imidazo[4,5-c]pyridin-2-yl)-1H-pyrazolo[4,3-b]pyridin-5-yl)pyridin-3-yl)pivalamide]: the inhibition at 10 µM with SW480 colon cancer cells amounted to 1.5%. The EC50 with SW480 colon cancer cells was above 10 µM; in test [1], 2700 nM.

Regarding `Clc1ccc(-c2cncc3[nH]c(-c4n[nH]c5ccc(-c6cncc(CN7CCCC7)c6)nc45)nc23)s1` [Compound 1004, 3-(7-(5-Chlorothiophen-2-yl)-3H-imidazo[4,5-c]pyridin-2-yl)-5-(5-(pyrrolidin-1-ylmethyl)pyridin-3-yl)-1H-pyrazolo[4,3-b]pyridine], the EC50 in the test on SW480 colon cancer cells amounted to 2.94 µM; in test [1], 3470 nM.

With `O=C(Nc1cncc(-c2ccc3[nH]nc(-c4nc5c(-c6ccc(Cl)s6)cncc5[nH]4)c3n2)c1)C1CCC1` [Compound 1011, N-(5-(3-(7-(5-Chlorothiophen-2-yl)-3H-imidazo[4,5-c]pyridin-2-yl)-1H-pyrazolo[4,3-b]pyridin-5-yl)pyridin-3-yl)cyclobutanecarboxamide], the EC50 with SW480 colon cancer cells turned out to be 2.51 µM; in test [1] it was 1050 nM.

The values above are taken from patent US10188634B2, “3-(3H-imidazo[4,5-C]pyridin-2-yl)-1 H-pyrazolo[4,3-B]pyridines and therapeutic uses thereof” (Samumed, LLC, priority 2015, dated 2019).
